Experimental data taken from ChEMBL document CHEMBL2346573, “Probing the role of the vancomycin e-ring aryl chloride: selective divergent synthesis and evaluation of alternatively substituted E-ring analogues” (2013).
Converted amounts (≈) assume the structure as drawn.

Experiments:
[1] = Binding affinity to N,N'-Ac2-L-Lys-D-Ala-D-Ala (unknown origin)
Staphylococcus aureus [2] = test: Antimicrobial activity against vancomycin-sensitive Staphylococcus aureus ATCC 25923 after 24 hrs by microtiter plate assay; assay type: functional; details: ATCC 25923, 24 h
Enterococcus faecalis [3] = test: Antimicrobial activity against VanB vancomycin-resistant Enterococcus faecalis ATCC 51299 after 24 hrs by microtiter plate assay; assay type: functional; details: ATCC 51299, 24 h
Enterococcus faecalis [4] = test: Antimicrobial activity against VanB vancomycin-resistant Enterococcus faecalis ATCC 51299; assay type: functional
Enterococcus faecalis [5] = test: Antimicrobial activity against VanA vancomycin-resistant Enterococcus faecalis BM4166; assay type: functional
Staphylococcus aureus [6] = test: Antimicrobial activity against Staphylococcus aureus ATCC 25923; assay type: functional
[7] = Ratio of MIC for VanB vancomycin-resistant Enterococcus faecalis ATCC 51299 to MIC for vancomycin-sensitive Staphylococcus aureus ATCC 25923; assay type: functional

SMILES	Ka [1]	MIC (Staphylococcus aureus [2])	MIC (Enterococcus faecalis [3])	MIC (Enterococcus faecalis [4])	MIC (Enterococcus faecalis [5])	MIC (Staphylococcus aureus [6])	Ratio [7]
CN[C@H](CC(C)C)C(=O)N[C@H]1C(=O)N[C@@H](CC(N)=O)C(=O)N[C@H]2C(=O)N[C@H]3C(=O)N[C@H](C(=O)N[C@H](C(=O)O)c4cc(O)cc(O)c4-c4cc3ccc4O)[C@H](O)c3ccc(c(Cl)c3)Oc3cc2cc(c3O)Oc2ccc(cc2Br)[C@H]1O	1.1 ×10⁵ /M	2.5 µg/mL (≈ 2.1 µM)	40 µg/mL (≈ 33.7 µM)	–	–	–	–
CN[C@H](CC(C)C)C(=O)N[C@H]1C(=O)N[C@@H](CC(N)=O)C(=O)N[C@H]2C(=O)N[C@H]3C(=O)N[C@H](C(=O)N[C@H](C(=O)OC)c4cc(OC)cc(OC)c4-c4cc3ccc4OC)[C@H](O)c3ccc(c(Cl)c3)Oc3cc2cc(c3OC)Oc2ccc(cc2OC)[C@H]1O	1.2 ×10⁵ /M	2.5 µg/mL (≈ 2.07 µM)	5 µg/mL (≈ 4.13 µM)	–	–	–	–
CN[C@H](CC(C)C)C(=O)N[C@H]1C(=O)N[C@@H](CC(N)=O)C(=O)N[C@H]2C(=O)N[C@H]3C(=O)N[C@H](C(=O)N[C@H](C(=O)OC)c4cc(OC)cc(OC)c4-c4cc3ccc4OC)[C@H](O)c3ccc(c(Cl)c3)Oc3cc2cc(c3OC)Oc2ccc(cc2Cl)[C@H]1O	1.3 ×10⁵ /M	1.25 µg/mL (≈ 1.03 µM)	2.5 µg/mL (≈ 2.06 µM)	2.5 µg/mL (≈ 2.06 µM)	50 µg/mL (≈ 41.2 µM)	1.25 µg/mL (≈ 1.03 µM)	–
CN[C@H](CC(C)C)C(=O)N[C@H]1C(=O)N[C@@H](CC(N)=O)C(=O)N[C@H]2C(=O)N[C@H]3C(=O)N[C@H](C(=O)N[C@H](C(=O)OC)c4cc(OC)cc(OC)c4-c4cc3ccc4OC)[C@H](O)c3ccc(c(Cl)c3)Oc3cc2cc(c3OC)Oc2ccc(cc2N=[N+]=[N-])[C@H]1O	1.2 ×10⁵ /M	1.25 µg/mL (≈ 1.02 µM)	5 µg/mL (≈ 4.1 µM)	–	–	–	–
CN[C@H](CC(C)C)C(=O)N[C@H]1C(=O)N[C@@H](CC(N)=O)C(=O)N[C@H]2C(=O)N[C@H]3C(=O)N[C@H](C(=O)N[C@H](C(=O)O)c4cc(O)cc(O)c4-c4cc3ccc4O)[C@H](O)c3ccc(c(Cl)c3)Oc3cc2cc(c3O)Oc2ccc(cc2)[C@H]1O	0.68 ×10⁵ /M	5 µg/mL (≈ 4.51 µM)	80 µg/mL (≈ 72.1 µM)	–	–	–	–
CN[C@H](CC(C)C)C(=O)N[C@H]1C(=O)N[C@@H](CC(N)=O)C(=O)N[C@H]2C(=O)N[C@H]3C(=O)N[C@H](C(=O)N[C@H](C(=O)OC)c4cc(OC)cc(OC)c4-c4cc3ccc4OC)[C@H](O)c3ccc(c(Cl)c3)Oc3cc2cc(c3OC)Oc2ccc(cc2B(O)O)[C@H]1O	0.23 ×10⁵ /M	5 µg/mL (≈ 4.09 µM)	10 µg/mL (≈ 8.17 µM)	–	–	–	–
CN[C@H](CC(C)C)C(=O)N[C@H]1C(=O)N[C@@H](CC(N)=O)C(=O)N[C@H]2C(=O)N[C@H]3C(=O)N[C@H](C(=O)N[C@H](C(=O)OC)c4cc(OC)cc(OC)c4-c4cc3ccc4OC)[C@H](O)c3ccc(c(Cl)c3)Oc3cc2cc(c3OC)Oc2ccc(cc2)[C@H]1O	0.71 ×10⁵ /M	5 µg/mL (≈ 4.24 µM)	5 µg/mL (≈ 4.24 µM)	–	–	–	1
N[C@H]1C(=O)N[C@@H]2Cc3ccc(c(Cl)c3)Oc3cc4cc(c3O)Oc3ccc(cc3Cl)[C@@H](O)[C@@H]3NC(=O)[C@H](NC(=O)[C@@H]4NC(=O)[C@@H](NC2=O)c2cc(O)cc(c2)Oc2cc1ccc2O)c1ccc(O)c(c1)-c1c(O)cc(O)cc1[C@@H](C(=O)O)NC3=O [TEICOPLANIN AGLYCON]	–	–	–	25 µg/mL (≈ 20.9 µM)	> 100 µg/mL	1.6 µg/mL (≈ 1.33 µM)	–
COC(=O)[C@H]1NC(=O)[C@H]2NC(=O)[C@H](NC(=O)[C@@H]3NC(=O)[C@H]4NC(=O)[C@@H](Cc5ccc(c(Cl)c5)Oc5cc3cc(c5OC)Oc3ccc(cc3Cl)[C@H]2O)NC(=O)[C@H](N)c2ccc(OC)c(c2)Oc2cc(OC)cc4c2)c2ccc(OC)c(c2)-c2c(OC)cc(OC)cc21	–	–	–	3.2 µg/mL (≈ 2.47 µM)	> 100 µg/mL	3.2 µg/mL (≈ 2.47 µM)	–
CN[C@H](CC(C)C)C(=O)N[C@H]1C(=O)N[C@@H](CC(N)=O)C(=O)N[C@H]2C(=O)N[C@H]3C(=O)N[C@H](C(=O)N[C@H](C(=O)OC)c4cc(OC)cc(OC)c4-c4cc3ccc4OC)[C@H](O)c3ccc(c(Cl)c3)Oc3cc2cc(c3OC)Oc2ccc(cc2N(C)C)[C@H]1O	0.34 ×10⁵ /M	5 µg/mL (≈ 4.09 µM)	10 µg/mL (≈ 8.18 µM)	–	–	–	–
CN[C@H](CC(C)C)C(=O)N[C@H]1C(=O)N[C@@H](CC(N)=O)C(=O)N[C@H]2C(=O)N[C@H]3C(=O)N[C@H](C(=O)N[C@H](C(=O)OC)c4cc(OC)cc(OC)c4-c4cc3ccc4OC)[C@H](O)c3ccc(c(Cl)c3)Oc3cc2cc(c3OC)Oc2ccc(cc2Br)[C@H]1O	1.1 ×10⁵ /M	2.5 µg/mL (≈ 1.99 µM)	5 µg/mL (≈ 3.97 µM)	–	–	–	–
CN[C@H](CC(C)C)C(=O)N[C@H]1C(=O)N[C@@H](CC(N)=O)C(=O)N[C@H]2C(=O)N[C@H]3C(=O)N[C@H](C(=O)N[C@H](C(=O)OC)c4cc(OC)cc(OC)c4-c4cc3ccc4OC)[C@H](O)c3ccc(c(Cl)c3)Oc3cc2cc(c3OC)Oc2ccc(cc2C#N)[C@H]1O	1.1 ×10⁵ /M	2.5 µg/mL (≈ 2.08 µM)	5 µg/mL (≈ 4.15 µM)	–	–	–	–
CN[C@H](CC(C)C)C(=O)N[C@H]1C(=O)N[C@@H](CC(N)=O)C(=O)N[C@H]2C(=O)N[C@H]3C(=O)N[C@H](C(=O)N[C@H](C(=O)OC)c4cc(OC)cc(OC)c4-c4cc3ccc4OC)[C@H](O)c3ccc(c(Cl)c3)Oc3cc2cc(c3OC)Oc2ccc(cc2C(=O)OC)[C@H]1O	1 ×10⁵ /M	2.5 µg/mL (≈ 2.02 µM)	10 µg/mL (≈ 8.08 µM)	–	–	–	–
CN[C@H](CC(C)C)C(=O)N[C@H]1C(=O)N[C@@H](CC(N)=O)C(=O)N[C@H]2C(=O)N[C@H]3C(=O)N[C@H](C(=O)N[C@H](C(=O)O)c4cc(O)cc(O)c4-c4cc3ccc4O)[C@H](O)c3ccc(c(Cl)c3)Oc3cc2cc(c3O[C@@H]2O[C@H](CO)[C@@H](O)[C@H](O)[C@H]2O[C@H]2C[C@](C)(N)[C@H](O)[C@H](C)O2)Oc2ccc(cc2Cl)[C@H]1O [VANCOMYCIN]	–	1.25 µg/mL (≈ 0.863 µM)	120 µg/mL (≈ 82.8 µM)	120 µg/mL (≈ 82.8 µM)	> 100 µg/mL	–	–
CN[C@H](CC(C)C)C(=O)N[C@H]1C(=O)N[C@@H](CC(N)=O)C(=O)N[C@H]2C(=O)N[C@H]3C(=O)N[C@H](C(=O)N[C@H](C(=O)OC)c4cc(OC)cc(OC)c4-c4cc3ccc4OC)[C@H](O)c3ccc(c(Cl)c3)Oc3cc2cc(c3OC)Oc2ccc(cc2C(F)(F)F)[C@H]1O	1.2 ×10⁵ /M	2.5 µg/mL (≈ 2 µM)	20 µg/mL (≈ 16 µM)	–	–	–	8
CN[C@H](CC(C)C)C(=O)N[C@H]1C(=O)N[C@@H](CC(N)=O)C(=O)N[C@H]2C(=O)N[C@H]3C(=O)N[C@H](C(=O)N[C@H](C(=O)OC)c4cc(OC)cc(OC)c4-c4cc3ccc4OC)[C@H](O)c3ccc(c(Cl)c3)Oc3cc2cc(c3OC)Oc2ccc(cc2I)[C@H]1O	1.3 ×10⁵ /M	2.5 µg/mL (≈ 1.91 µM)	10 µg/mL (≈ 7.66 µM)	–	–	–	–
CN[C@H](CC(C)C)C(=O)N[C@H]1C(=O)N[C@@H](CC(N)=O)C(=O)N[C@H]2C(=O)N[C@H]3C(=O)N[C@H](C(=O)N[C@H](C(=O)OC)c4cc(OC)cc(OC)c4-c4cc3ccc4OC)[C@H](O)c3ccc(c(Cl)c3)Oc3cc2cc(c3OC)Oc2ccc(cc2[N+](=O)[O-])[C@H]1O	0.097 ×10⁵ /M	> 40 µg/mL	> 40 µg/mL	–	–	–	–
CN[C@H](CC(C)C)C(=O)N[C@H]1C(=O)N[C@@H](CC(N)=O)C(=O)N[C@H]2C(=O)N[C@H]3C(=O)N[C@H](C(=O)N[C@H](C(=O)O)c4cc(O)cc(O)c4-c4cc3ccc4O)[C@H](O)c3ccc(c(Cl)c3)Oc3cc2cc(c3O)Oc2ccc(cc2Cl)[C@H]1O [VANCOMYCIN AGLYCON]	1.4 ×10⁵ /M	1.25 µg/mL (≈ 1.09 µM)	40 µg/mL (≈ 35 µM)	> 100 µg/mL	> 100 µg/mL	0.8 µg/mL (≈ 0.699 µM)	–
CN[C@H](CC(C)C)C(=O)N[C@H]1C(=O)N[C@@H](CC(N)=O)C(=O)N[C@H]2C(=O)N[C@H]3C(=O)N[C@H](C(=O)N[C@H](C(=O)OC)c4cc(OC)cc(OC)c4-c4cc3ccc4OC)[C@H](O)c3ccc(c(Cl)c3)Oc3cc2cc(c3OC)Oc2ccc(cc2O)[C@H]1O	0.88 ×10⁵ /M	5 µg/mL (≈ 4.18 µM)	5 µg/mL (≈ 4.18 µM)	–	–	–	1
CN[C@H](CC(C)C)C(=O)N[C@H]1C(=O)N[C@@H](CC(N)=O)C(=O)N[C@H]2C(=O)N[C@H]3C(=O)N[C@H](C(=O)N[C@H](C(=O)OC)c4cc(OC)cc(OC)c4-c4cc3ccc4OC)[C@H](O)c3ccc(c(Cl)c3)Oc3cc2cc(c3OC)Oc2ccc(cc2C)[C@H]1O	1.2 ×10⁵ /M	2.5 µg/mL (≈ 2.09 µM)	5 µg/mL (≈ 4.19 µM)	–	–	–	–
CN[C@H](CC(C)C)C(=O)N[C@H]1C(=O)N[C@@H](CC(N)=O)C(=O)N[C@H]2C(=O)N[C@H]3C(=O)N[C@H](C(=O)N[C@H](C(=O)O)c4cc(O)cc(O)c4-c4cc3ccc4O)[C@H](O)c3ccc(c(Cl)c3)Oc3cc2cc(c3O)Oc2ccc(cc2O)[C@H]1O	0.53 ×10⁵ /M	5 µg/mL (≈ 4.44 µM)	40 µg/mL (≈ 35.5 µM)	–	–	–	–
